What was measured:
[1] = test system: DENV2; assay: Attachment inhibition study; format: cell-based, Dengue virus
Experimental: Since dengue envelope protein was the key factor to receptor-binding, endocytosis, and fusion, we asked the question whether the compound would mainly neutralize the virion, inhibit the receptor binding, or inhibit endosomal fusion. Cardol triene at 10 µM was then co-incubated with DENV2 before, during, and after infection to Vero cells (Fig. 6A). […] Therefore, the major target was most likely at a pH-dependent endosomal fusion. […] However, the major post-infection inhibition required further investigations.
Vero (5 × 10^4) cells were seeded into 24-well plates as previously described. DENV2 (M.O.I. of 1) was diluted in ice-cold MEM with 1% fetal bovine serum[42] and was allowed to adsorb on the cells for 1 h with continuous rocking. Cardol triene (10 µM) was prepared in DMSO and was mixed with DENV2 (M.O.I. of 1) before adsorption for 1 h (pre-attachment). Cardol triene (10 µM) was also mixed with DENV2 (M.O.I. of 1) and immediately applied to the cells (co-attachment). Last, cardol triene was added to the cells after 1 h DENV2 adsorption (post-attachment). The experiments were incubated for 2 days at 37 °C. Intracellular viral RNA was determined from cell lysate using RT-qPCR and infectious virion was determined using plaque titration of the supernatant. DMSO was added to the experiment as a no-inhibition control. Means and standard error of the means (SEM) of three independent experiments were noted.

[2] = test system: ZIKV (sv0010/15); assay: Efficacy (EC50) in infected Vero cells; format: cell-based, Zika virus
[3] = test system: normal human lung fibroblast cell line, GM07492A; set-up: method as in PMID 27934289; settings: read-out: cytotoxicity value (CC50); cited from earlier work
[4] = test system: BHK-21/DENV2 replicon cells; assay: Replicon cell viability, MTS assay; format: cell-based; settings: 10 µM and 20 µM, 72 h
Experimental: (§1) We analyzed the replication inhibition using BHK-21/DENV2 replicon cells stably expressed the non-structural proteins. Cardol triene at 10 µM and 20 µM were added to the replicon cells for 72 h and the replication inhibition was accessed by RT-qPCR of DENV2 NS1. Ribavirin, a known inhibitor of flaviviral replication, was used as a positive inhibition control. […] Replicon cell viability under cardol triene treatment was also analyzed using an MTS assay. […] Therefore, we concluded that cardol triene inhibited DENV RNA replicon replication, potentially in dose-dependent manner.
Figure 7 Replicon inhibition study. (A) DENV2/BHK-21 replicon (5 × 10^4 cells) were treated with cardol triene or ribavirin for 72 h. Percent inhibition was calculated from RT-qPCR of cell lysate. (B) Percent DENV2/BHK-21 replicon cell viability at 72 h under 10 and 20 µM cardol triene. Error bars represented standard error of means (SEM) from three independent experiments.

[5] = test system: DENV2; assay: Fusion inhibition study in C6/36 cells; format: cell-based, Dengue virus; settings: 10 µM, C6/36, M.O.I. of 1, 48 h, MES
Experimental: Fusion inhibition study[25]–[27] of DENV and ZIKV were used to confirm the findings. Briefly, cardol triene at 10 µM was added to DENV2 or ZIKV (Fig. 6C-D) infected C6/36 cells at the M.O.I. of 1 for 48 h before inducing acidic condition by MES. The 4G2 antibody was used as a positive control inhibiting both DENV2 and ZIKV fusion. […] Therefore, we concluded that one of the targets of cardol triene, and other CNSL-derived phenolic lipids, was the kl loops of DENV E protein, thus preventing the conformational change of DENV dimer to trimer that was required to initiate pH-dependent fusion.
C6/36 (2 × 10^5) cells were seeded into 24-well plates before infection with DENV2 and ZIKV (M.O.I. of 1) as described. Cardol triene at 10 µM were introduced to the DENV2 and ZIKV infected cells during and after infection. […] Cells were incubate at 28 °C for 2 days before addition of 0.5 M 2-(N-morpholino) ethanesulfonic acid (MES) (pH 5.0) (Sigma Aldrich, St Louis, USA). Moreover, cells from selected wells subsequently underwent DAPI staining. Cell-cell fusion was observed under brightfield and fluorescence using an Eclipse TS100 Inverted Routine Microscope (Nikon, New York, USA).

[6] = test system: dengue virus serotype 1–4; assay: Pan-dengue inhibition (EC50s over serotypes); format: cell-based; settings: DENV1, read-out: EC50s, pan-dengue inhibition
[7] = test system: DENV1 (16007); assay: Efficacy (EC50) in infected Vero cells; format: cell-based; settings: Dengue virus
[8] = test system: DENV2 NGC; assay: Efficacy study (EC50) in DENV2 infected Vero cells, plaque titration; format: cell-based, Dengue virus
Experimental: Next, we studied the efficacies (EC50) of the phenolic lipid homologues against DENV2 infectivity in Vero cells. Briefly, compounds at 10 different concentrations were added to DENV2-infected Vero cells (M.O.I. of 0.1) during and post infection and the viral inhibition was determined by plaque titration. […] Noted that anacardic acids were major components of CNSL extracts and all homologues were purified directly from CNSL itself.
Next, each homologue was analyzed for effective concentration (EC50). Vero (5 × 10^4) cells were seeded, and infected with DENV2 (M.O.I. of 0.1) as previously described. Phenolic lipid mixtures and homologues were serially diluted in DMSO to the final concentrations as follows; 0, 0.5, 1, 1.5, 2, 2.5, 5, 7.5, 10, 25, and 50 µM. DMSO at the concentration of 1% was used as a mock treatment referring to 100% infection. Infected cells were treated with the designated compounds during and post infection. Supernatants were collected at 3 days after infection for analysis of virion production by plaque titration. Non-linear regression analysis was used to determine the effective concentrations. […] The therapeutic index (TI) was a ration of CC50/EC50 of the compound.

[9] = test system: BHK-21/DENV2 replicon cells; assay: Replicon inhibition study, RT-qPCR of DENV2 NS1; format: cell-based, Dengue virus; settings: 72 h
Experimental: as §1
BHK-21 (5 × 10^4) cells expressing DENV-2 replicon (BHK-21/DENV2)[44] were seeded as previously described. Cardol triene at 10 µM and 20 µM, DMSO, and ribavirin (TargetMol, USA) were added to the replicon cells and incubated at 37 °C for 3 days. Cells lysates were collected and viral RNA was quantified by RT-qPCR as previously described. Data were reported as percent inhibition compared with ribavirin. Three biological replicates were performed and results were means and SEM of all replicates.

## C=CC/C=C/C/C=C/CCCCCCCc1cc(O)cc(O)c1 [Cardol triene, 5-[8(Z), 11(Z), 14-pentadecatrienyl]resorcinol]
[1]; 10 µM, post-infection, RT-qPCR
  inhibition of intracellular RNA: 87.00 ± 6.43%
[1]; 10 µM, pre-incubation and co-infection
  inhibition of infectious virions: moderate inhibition
[1]; Dengue virus, DENV2, post-infection, plaque titration, read-out: inhibition of infectious virion
  inhibition at 10 µM: 91.7 ± 4.53%
[2]
  Zika virus inhibition: did not inhibit
[3]
  CC50: 193 ± 6 µM
[4]
  replicon cell viability: did not have effect on cell viability
[5]
  DENV2 pH-dependent cell fusion: exclusively inhibited dengue fusion
[6]
  EC50: 5.35 to 8.89 µM
[7]
  EC50: 5.35 ± 1.16 µM
[8]; Dengue virus, 72 h, DENV2 NGC (M.O.I. of 0.1) infected Vero cells, plaque titration, 3 days, read-out: EC50
  EC50: 7.13 ± 0.72 µM
[8]; Vero CC50 / DENV2 EC50
  TI (therapeutic index, CC50/EC50): 29.07
[9]; 10 µM
  DENV2 RNA inhibition: 76.60 ± 7.59%
[9]; 20 µM
  DENV2 RNA inhibition: 89.44 ± 4.02%

Source: PMC6226472, “Cardol triene inhibits dengue infectivity by targeting kl loops and preventing envelope fusion” (Scientific Reports, 2018)
